Assay results: US20250179078A1, “INHIBITORS OF NLRP3” (PTC THERAPEUTICS, INC., priority 2022, published 2025)

Target: T1, NLRP3 (Homo sapiens, UniProt Q96P20)
T1 construct: host or cells: THP-1 cells differentiated with PMA
Test: IL-1β Secretion Assay (NLRP3-dependent IL1β secretion in THP1 cells)
Type: cell-based
Settings: PMA-differentiated THP-1 cells; compounds incubated 20 h; 2.5 μM Nigericin 3 h; HTRF IL-1β readout; read-out: IC50 IL-1β Inhibition
Outline: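 IL-1β in conditioned media, measured by HTRF after 3 h 2.5 μM nigericin stimulation, gave % inhibition fitted logistically for IC50. Before that, PMA-differentiated (100 ng/mL, 24 h) THP-1 cells were preincubated 20 h with 7 compound concentrations (3-fold serial, DMSO 1:200).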

T1 sequence (Q96P20 whole entry): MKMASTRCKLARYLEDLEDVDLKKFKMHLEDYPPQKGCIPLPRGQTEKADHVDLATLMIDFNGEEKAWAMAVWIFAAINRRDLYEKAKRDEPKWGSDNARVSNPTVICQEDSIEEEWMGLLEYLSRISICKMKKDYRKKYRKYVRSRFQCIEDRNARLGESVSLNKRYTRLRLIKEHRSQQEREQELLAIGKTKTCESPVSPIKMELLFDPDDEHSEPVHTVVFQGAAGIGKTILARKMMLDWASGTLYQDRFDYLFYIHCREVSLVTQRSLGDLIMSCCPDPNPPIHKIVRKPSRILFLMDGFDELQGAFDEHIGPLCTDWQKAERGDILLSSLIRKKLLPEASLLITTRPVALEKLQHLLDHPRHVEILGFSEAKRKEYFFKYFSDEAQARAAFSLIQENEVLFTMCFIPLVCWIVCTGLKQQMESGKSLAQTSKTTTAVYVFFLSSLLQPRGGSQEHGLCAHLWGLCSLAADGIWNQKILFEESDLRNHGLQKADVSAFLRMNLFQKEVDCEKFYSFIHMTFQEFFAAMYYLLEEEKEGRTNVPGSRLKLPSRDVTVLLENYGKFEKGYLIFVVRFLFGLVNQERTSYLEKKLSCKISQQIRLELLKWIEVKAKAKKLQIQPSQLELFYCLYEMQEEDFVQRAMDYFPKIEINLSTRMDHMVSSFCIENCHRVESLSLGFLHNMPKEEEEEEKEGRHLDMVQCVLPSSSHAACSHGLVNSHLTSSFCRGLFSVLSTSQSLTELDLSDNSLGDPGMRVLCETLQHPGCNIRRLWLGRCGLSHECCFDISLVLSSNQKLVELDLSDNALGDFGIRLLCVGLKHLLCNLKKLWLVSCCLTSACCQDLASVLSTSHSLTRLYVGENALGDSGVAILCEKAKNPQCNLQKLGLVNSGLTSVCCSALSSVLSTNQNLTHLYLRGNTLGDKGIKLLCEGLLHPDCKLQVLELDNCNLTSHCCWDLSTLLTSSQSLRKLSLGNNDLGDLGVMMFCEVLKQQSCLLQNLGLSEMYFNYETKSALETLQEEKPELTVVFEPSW

Row | Compound | IC50
1 | COc1ccc(-c2nnc(N[C@@H]3CCOC3)n3cccc23)c(OC(F)(F)F)c1 [Compound 68, 1-[4-methoxy-2-(trifluoromethoxy)phenyl]-N-[(3R)-oxolan-3-yl]pyrrolo[1,2-d][1,2,4]triazin-4-amine] | 10 to 100 nM
2 | COc1ccc(-c2nnc(N[C@H]3CCC[C@@H](CO)C3)n3cccc23)c(OC(F)F)c1 [Compound 176, [(1R,3S)-3-({1-[2-(difluoromethoxy)-4-methoxyphenyl]pyrrolo[1,2-d][1,2,4]triazin-4-yl}amino)cyclohexyl]methanol] | 10 to 100 nM
3 | O[C@@H]1CCCCC[C@H]1Nc1nnc(-c2ccc(C(F)(F)F)cc2CC(F)(F)F)c2cccn12.O[C@H]1CCCCC[C@@H]1Nc1nnc(-c2ccc(C(F)(F)F)cc2CC(F)(F)F)c2cccn12 [Compound 127, (1R,2R)-2-({1-[2-(2,2,2-trifluoroethyl)-4-(trifluoromethyl)phenyl]pyrrolo[1,2-d][1,2,4]triazin-4-yl}amino)cycloheptan-1-ol AND (1S,2S)-2-({1-[2-(2,2,2-trifluoroethyl)-4-(trifluoromethyl)phenyl]pyrrolo[1,2-d][1,2,4]triazin-4-yl}amino)cycloheptan-1-ol] | 10 to 100 nM
4 | CCOc1ccc(-c2nnc(N[C@@H]3CCCN(C)C3)n3cccc23)c(OC(F)(F)F)c1 [Compound 43, 1-[4-ethoxy-2-(trifluoromethoxy)phenyl]-N-[(3R)-1-methylpiperidin-3-yl]pyrrolo[1,2-d][1,2,4]triazin-4-amine] | 10 to 100 nM
5 | CC(C)CN1CCC[C@@H](Nc2nnc(-c3ccc(C(F)(F)F)cc3C(F)(F)F)c3cccn23)C1 [Compound 10, 1-[2,4-bis(trifluoromethyl)phenyl]-N-[(3R)-1-(2-methylpropyl)piperidin-3-yl]pyrrolo[1,2-d][1,2,4]triazin-4-amine] | 1 to 10 nM
6 | CN1CCC[C@@H](Nc2nnc(-c3ccc(C(F)(F)F)cc3OC(F)(F)F)c3cccn23)C1 [Compound 140, N-[(3R)-1-methylpiperidin-3-yl]-1-[2-(trifluoromethoxy)-4-(trifluoromethyl)phenyl]pyrrolo[1,2-d][1,2,4]triazin-4-amine] | < 1 nM
7 | Cc1ccc(-c2nnc(N[C@@H]3CCCC[C@H]3O)n3cccc23)c(OC(F)F)c1 [Compound 136, (1R,2R)-2-({1-[2-(difluoromethoxy)-4-methylphenyl]pyrrolo[1,2-d][1,2,4]triazin-4-yl}amino)cyclohexan-1-ol] | 1 to 10 nM
8 | COc1ccc(-c2nnc(N[C@H]3CCCC[C@@H]3O)n3cc(C)cc23)c(OC(F)(F)F)c1 [Compound 133, (1S,2S)-2-({1-[4-methoxy-2-(trifluoromethoxy)phenyl]-7-methylpyrrolo[1,2-d][1,2,4]triazin-4-yl}amino)cyclohexan-1-ol] | 10 to 100 nM
9 | CCN1CCC[C@@H](Nc2nnc(-c3ccc(OC)cc3OC(F)F)c3c(F)ccn23)C1 [Compound 56, 1-[2-(difluoromethoxy)-4-methoxyphenyl]-N-[(3R)-1-ethylpiperidin-3-yl]-8-fluoropyrrolo[1,2-d][1,2,4]triazin-4-amine] | < 1 nM
10 | COc1ccc(-c2nnc(N[C@@H]3CCC[C@H](O)C3)n3cccc23)c(OC(F)(F)F)c1 [Compound 62, (1S,3R)-3-({1-[4-methoxy-2-(trifluoromethoxy)phenyl]pyrrolo[1,2-d][1,2,4]triazin-4-yl}amino)cyclohexan-1-ol] | 10 to 100 nM
11 | OCCN1CCC[C@@H](Nc2nnc(-c3ccc(C4CC4)cc3OC(F)F)c3cncn23)C1 [Compound 185, 2-[(3R)-3-({1-[4-cyclopropyl-2-(difluoromethoxy)phenyl]imidazo[1,5-d][1,2,4]triazin-4-yl}amino)piperidin-1-yl]ethan-1-ol] | 1 to 10 nM
12 | O[C@H]1CCCC[C@@H]1Nc1nnc(-c2ccc(C(F)(F)F)cc2C(F)(F)F)c2cccn12 [Compound 99, (1S,2S)-2-({1-[2,4-bis(trifluoromethyl)phenyl]pyrrolo[1,2-d][1,2,4]triazin-4-yl}amino)cyclohexan-1-ol] | 100 to 300 nM
13 | COc1ccc(-c2nnc(NCC(C)(C)O)n3cccc23)c(OC(F)(F)F)c1 [Compound 66, 1-({1-[4-methoxy-2-(trifluoromethoxy)phenyl]pyrrolo[1,2-d][1,2,4]triazin-4-yl}amino)-2-methylpropan-2-ol] | 10 to 100 nM
14 | Cc1cc2c(-c3ccc(Cl)cc3OC(F)F)nnc(N[C@@H]3CCCN(C)C3)n2c1 [Compound 13, 1-[4-chloro-2-(difluoromethoxy)phenyl]-7-methyl-N-[(3R)-1-methylpiperidin-3-yl]pyrrolo[1,2-d][1,2,4]triazin-4-amine] | 1 to 10 nM

Now from value to compound:

Row | IC50 | Compound
15 | 1 to 10 nM | COc1ccc(-c2nnc(NC3CCNC3=O)n3cncc23)c(OC(F)F)c1 (centres unmarked) [Compound 269, 3-({1-[2-(difluoromethoxy)-4-methoxyphenyl]imidazo[1,5-d][1,2,4]triazin-4-yl}amino)pyrrolidin-2-one]
16 | 1 to 10 nM | COc1ccc(-c2nnc(N[C@@H]3CCCN(C)C3)n3cncc23)c(C(F)(F)C(F)(F)F)c1 [Compound 281, 1-[4-methoxy-2-(pentafluoroethyl)phenyl]-N-[(3R)-1-methylpiperidin-3-yl]imidazo[1,5-d][1,2,4]triazin-4-amine]
17 | 1 to 10 nM | C[C@]1(O)C[C@@H](Nc2nnc(-c3ccc(Cl)cc3C(F)(F)F)c3cncn23)C1 [Compound 298, (1s,3s)-3-({1-[4-chloro-2-(trifluoromethyl)phenyl]imidazo[1,5-d][1,2,4]triazin-4-yl}amino)-1-methylcyclobutan-1-ol]
18 | 10 to 100 nM | CC(C)(O)C1CC(Nc2nnc(-c3ccc(C(F)(F)F)cc3CC(F)(F)F)c3cncn23)C1 (centres unmarked) [Compound 339, 2-[3-({1-[2-(2,2,2-trifluoroethyl)-4-(trifluoromethyl)phenyl]imidazo[1,5-d][1,2,4]triazin-4-yl}amino)cyclobutyl]propan-2-ol]
19 | 1 to 10 nM | O=C1NCCC1Nc1nnc(-c2ccc(OC(F)F)cc2OC(F)(F)F)c2cncn12 (centres unmarked) [Compound 260, 3-({1-[4-(difluoromethoxy)-2-(trifluoromethoxy)phenyl]imidazo[1,5-d][1,2,4]triazin-4-yl}amino)pyrrolidin-2-one]
20 | < 1 nM | CN1CCC[C@@H](Nc2nnc(-c3ccc(C(F)(F)F)cc3OC(F)(F)F)c3cncn23)C1 [Compound 197, N-[(3R)-1-methylpiperidin-3-yl]-1-[2-(trifluoromethoxy)-4-(trifluoromethyl)phenyl]imidazo[1,5-d][1,2,4]triazin-4-amine]
21 | < 1 nM | OCCN1CCC[C@@H](Nc2nnc(-c3ccc(Br)cc3OC(F)F)c3cncn23)C1 [Compound 198, 2-[(3R)-3-({1-[4-bromo-2-(difluoromethoxy)phenyl]imidazo[1,5-d][1,2,4]triazin-4-yl}amino)piperidin-1-yl]ethan-1-ol]
22 | 10 to 100 nM | COc1ccc(-c2nnc(NC3CCNC3=O)n3cncc23)c(OC(F)(F)F)c1 (centres unmarked) [Compound 284, 3-({1-[4-methoxy-2-(trifluoromethoxy)phenyl]imidazo[1,5-d][1,2,4]triazin-4-yl}amino)pyrrolidin-2-one]
23 | 1 to 10 nM | COc1ccc(-c2nnc(N[C@H]3C[C@@](C)(O)C3)n3cccc23)c(OC(F)(F)F)c1 [Compound 9, (1s,3s)-3-({1-[4-methoxy-2-(trifluoromethoxy)phenyl]pyrrolo[1,2-d][1,2,4]triazin-4-yl}amino)-1-methylcyclobutan-1-ol]
